Data taken from patent US11780841B2, “3,6-methano-1H-pyrrolo[3,2-b]pyridine and 3,6-methano-1H-pyrrolo[3,2-c]pyridine compounds and medicaments using same” (priority 2018, dated 2023).

Each molecule was assayed on recombinant rabies virus 1088 strain expressing Gaussia Luciferase (GLuc) (1088/GLuc). Details: read-out: Anti-rabies activity.
Assay type: cell-based

| SMILES | IC50 |
| --- | --- |
| Cc1cccc(C[C@@H]2[C@@H]3[C@@H]4CN[C@@]2(C(=O)NCc2ccccc2)C[C@@H]4CN3CC(C)C)c1 (relative stereo) [IF-13] | 10 to 30 µM |
| O=C(NCCO)[C@@]12C[C@@H]3CN(Cc4cccc5ccccc45)[C@@H]([C@@H]3CN1)[C@H]2Cc1ccccc1 [IF-603] | 10 to 30 µM |
| CCOc1ccc(CN2C[C@H]3C[C@]4(C(=O)NCc5ccccc5)NC[C@H]3[C@H]2[C@H]4CC(C)C)cc1 [IF-853] | 5 to 10 µM |
| O=C(NCCc1ccccc1)[C@@]12C[C@@H]3CN(Cc4ccc(F)cc4)[C@@H]([C@@H]3CN1)[C@H]2Cc1ccc(O)cc1 [IF-715] | < 5 µM |
| CC(C)C[C@@H]1[C@@H]2[C@@H]3CN[C@@]1(C(=O)NCc1ccc4ccccc4c1)C[C@@H]3CN2Cc1ccccc1 [IF-854] | 5 to 10 µM |
| O=C(NCc1ccc(O)cc1)[C@]12NC[C@H]3C[C@H]1CN(CCO)[C@H]2[C@@H]3Cc1cccc2ccccc12 [IB-470] | 10 to 30 µM |
| CC(C)CCN1C[C@H]2C[C@]3(C(=O)NC(C)C)NC[C@H]2[C@H]1[C@H]3CCCNC(=N)N [IF-214] | 10 to 30 µM |
| Cc1ccc(CN2C[C@@H]3C[C@@H]4CN(C(=O)CC(C)C)[C@]3(C(=O)NCc3ccccc3)[C@@H]2[C@@H]4CC(C)C)cc1 (relative stereo) [IB-883] | < 5 µM |
| CC(C)C[C@@H]1[C@H]2CN[C@@]3(C(=O)NCCO)[C@@H](C2)CN(Cc2ccc(F)cc2)[C@@H]13 [IB-650] | 10 to 30 µM |
| NC(=O)CN1C[C@H]2C[C@]3(C(=O)NCc4cccc5ccccc45)NC[C@H]2[C@H]1[C@H]3Cc1cccc2ccccc12 (relative stereo) [IF-91] | < 5 µM |
| CC(C)CCNC(=O)[C@@]12C[C@@H]3CN(CCO)[C@@H]([C@@H]3CN1)[C@H]2Cc1ccccc1 [IF-656] | 10 to 30 µM |
| N=C(N)NCCCNC(=O)[C@]12NC[C@H]3C[C@H]1CN(CCc1ccccc1)[C@H]2[C@@H]3Cc1ccccc1 [IB-344] | 10 to 30 µM |
| CC(C)CNC(=O)[C@@]12C[C@@H]3CN(CC(C)C)[C@@H]([C@@H]3CN1)[C@H]2CCc1ccccc1 [IF-679] | < 5 µM |
| NC(=O)CCNC(=O)[C@@]12C[C@@H]3CN(Cc4ccc(F)cc4)[C@@H]([C@@H]3CN1)[C@H]2Cc1cccc2ccccc12 [IF-539] | < 5 µM |
| O=C(O)CCN1C[C@H]2C[C@]3(C(=O)NCCO)NC[C@H]2[C@H]1[C@H]3Cc1cccc2ccccc12 [IF-452] | 10 to 30 µM |
| N=C(N)NCCCNC(=O)[C@@]12C[C@@H]3CN(Cc4cccc5ccccc45)[C@@H]([C@@H]3CN1)[C@H]2Cc1cccc2ccccc12 [IF-390] | 10 to 30 µM |
| CC(C)CNC(=O)[C@]12NC[C@H]3C[C@H]1CN(Cc1ccc(F)cc1)[C@H]2[C@@H]3CCc1ccccc1 [IB-774] | < 5 µM |
| CC(C)CCNC(=O)[C@]12NC[C@H]3C[C@H]1CN(CC1CCCCC1)[C@H]2[C@@H]3Cc1ccc(O)cc1 [IB-648] | 10 to 30 µM |
| CC(C)CC[C@@H]1[C@H]2CN[C@@]3(C(=O)NCCO)[C@@H](C2)CN(CCc2ccccc2)[C@@H]13 [IB-461] | 10 to 30 µM |
| CC(C)CCN1C[C@H]2C[C@]3(C(=O)NCc4ccc(O)cc4)NC[C@H]2[C@H]1[C@H]3Cc1ccccc1 [IF-466] | 10 to 30 µM |
| CC(C)CCNC(=O)[C@]12NC[C@H]3C[C@H]1CN(CCO)[C@H]2[C@@H]3Cc1cccc2ccccc12 [IB-727] | < 5 µM |
| CC(C)CN1C[C@H]2C[C@]3(C(=O)NCc4ccccc4)NC[C@H]2[C@H]1[C@H]3Cc1ccccc1 (relative stereo) [IF-1, (3S*,3aS*,6S*,7R*,7aS*)-N,7-dibenzyl-1-isobutyloctahydro-6H-3,6-methanopyrrolo[3,2-c]pyridine-6-carboxamide] | 10 to 30 µM |

| SMILES | IC50 |
| --- | --- |
| O=C(NCc1ccccc1)[C@@]12C[C@@H]3CN(CCc4ccccc4)[C@@H]([C@@H]3CN1)[C@H]2Cc1ccc(O)cc1 [IF-640] | 10 to 30 µM |
| CC(C)CNC(=O)[C@@]12C[C@@H]3CN(CCC(=O)O)[C@@H]([C@@H]3CN1)[C@H]2Cc1ccc(O)cc1 [IF-455] | 10 to 30 µM |
| CC(C)CNC(=O)[C@@]12C[C@@H]3CN(CCc4ccccc4)[C@@H]([C@@H]3CN1)[C@H]2CC(C)C [IF-738] | 10 to 30 µM |
| CC(C)CNC(=O)[C@@]12C[C@@H]3CN(Cc4cccc5ccccc45)[C@@H]([C@@H]3CN1)[C@H]2CC(C)C [IF-739] | < 5 µM |
| CC(C)CC[C@@H]1[C@@H]2[C@@H]3CN[C@@]1(C(=O)NCc1ccc(F)cc1)C[C@@H]3CN2CC(N)=O (relative stereo) [IF-95] | 10 to 30 µM |
| CC(C)CNC(=O)[C@]12NC[C@H]3C[C@H]1CN(CC(C)C)[C@H]2[C@@H]3CCc1ccccc1 [IB-633] | < 5 µM |
| CC(C)CC[C@@H]1[C@H]2CN[C@@]3(C(=O)NCc4ccc(F)cc4)[C@@H](C2)CN(CCC(=O)O)[C@@H]13 [IB-399] | 10 to 30 µM |
| CC(C)CC1C2C=NC3(C(=O)NCc4ccccc4)C(C2)CN(Cc2ccc(N(C)C)cc2)C13 (stereo not drawn) [IIB-94] | 5 to 10 µM |
| CC(C)CNC(=O)[C@@]12C[C@@H]3CN(Cc4ccc(F)cc4)[C@@H]([C@@H]3CN1)[C@H]2Cc1ccccc1 [IF-653] | 10 to 30 µM |
| CC(C)CC[C@@H]1[C@H]2CN[C@@]3(C(=O)NCCCNC(=N)N)[C@@H](C2)CN(Cc2cccc4ccccc24)[C@@H]13 [IB-353] | < 5 µM |
| CC(C)CC[C@@H]1[C@@H]2[C@@H]3CN[C@@]1(C(=O)NCCO)C[C@@H]3CN2Cc1cccc2ccccc12 [IF-613] | 10 to 30 µM |
| CC(C)CNC(=O)[C@]12NC[C@H]3C[C@H]1CN(CC(C)C)[C@H]2[C@@H]3CCCNC(=N)N [IB-187] | 10 to 30 µM |
| CC(C)CCNC(=O)[C@@]12C[C@@H]3CN(CCO)[C@@H]([C@@H]3CN1)[C@H]2Cc1cccc2ccccc12 [IF-660] | 10 to 30 µM |
| CC(C)CC[C@@H]1[C@H]2CN[C@@]3(C(=O)NCc4ccc(O)cc4)[C@@H](C2)CN(CCC(=O)O)[C@@H]13 [IB-402] | 10 to 30 µM |
| CC(C)CC[C@@H]1[C@H]2CN[C@@]3(C(=O)NCCO)[C@@H](C2)CN(Cc2ccc(F)cc2)[C@@H]13 [IB-668] | < 5 µM |
| CCCCCCNC(=O)[C@@]12C[C@@H]3CN(CC(N)=O)[C@@H]([C@@H]3CN1)[C@H]2Cc1cccc2ccccc12 [IF-110] | < 5 µM |
| NC(=O)CN1C[C@@H]2C[C@@H]3CN[C@]2(C(=O)NCCc2ccccc2)[C@@H]1[C@@H]3Cc1cccc2ccccc12 [IB-97] | < 5 µM |
| COc1ccc(CN2C[C@H]3C[C@]4(C(=O)NCc5ccccc5)NC[C@H]3[C@H]2[C@H]4CC(C)C)cc1 [IF-841] | 5 to 10 µM |
| Cc1cccc(CNC(=O)[C@]23NC[C@@H]4C[C@H]2CN(CC(C)C)[C@H]3[C@@H]4Cc2ccccc2)c1 (relative stereo) [IB-15] | 10 to 30 µM |
| CC(C)CN1C[C@H]2C[C@]3(C(=O)NCc4ccccc4)NC[C@H]2[C@H]1[C@H]3Cc1cccc2ccccc12 [IF-753] | 10 to 30 µM |
| CC(C)CCN1C[C@@H]2C[C@@H]3CN[C@]2(C(=O)NCc2ccccc2)[C@@H]1[C@@H]3Cc1ccc(O)cc1 [IB-749] | 10 to 30 µM |
| CC(C)CC[C@@H]1[C@H]2CN[C@@]3(C(=O)NCCCNC(=N)N)[C@@H](C2)CN(CCc2ccccc2)[C@@H]13 [IB-346] | 10 to 30 µM |

| SMILES | IC50 |
| --- | --- |
| O=C(NCc1ccc(F)cc1)[C@]12NC[C@H]3C[C@H]1CN(CCO)[C@H]2[C@@H]3CCc1ccccc1 [IB-492] | < 5 µM |
| CCCCCCNC(=O)[C@@]12C[C@@H]3CN(Cc4ccccc4)[C@@H]([C@@H]3CN1)[C@H]2CC(C)C (relative stereo) [IF-560] | < 5 µM |
| CC(C)C[C@@H]1[C@H]2CN[C@@]3(C(=O)NCc4ccccc4)[C@@H](C2)CN(Cc2cccc(Cl)c2)[C@@H]13 [IB-865] | 5 to 10 µM |
| CC(C)CC[C@@H]1[C@@H]2[C@@H]3CN[C@@]1(C(=O)NCC(C)C)C[C@@H]3CN2CC(C)C [IF-412] | < 5 µM |
| CC(C)CC[C@@H]1[C@H]2CN[C@@]3(C(=O)NCc4ccccc4)[C@@H](C2)CN(Cc2ccc(O)cc2)[C@@H]13 [IB-786] | 10 to 30 µM |
| CC(C)CC[C@@H]1[C@H]2CN[C@@]3(C(=O)NCC(C)C)[C@@H](C2)CN(CC(C)C)[C@@H]13 [IB-378] | < 5 µM |
| CC(C)CC[C@@H]1[C@@H]2[C@@H]3CN[C@@]1(C(=O)NCCc1ccccc1)C[C@@H]3CN2CC(C)C [IF-727] | < 5 µM |
| CC(C)C[C@@H]1[C@@H]2[C@@H]3CN[C@@]1(C(=O)NCc1ccccc1)C[C@@H]3CN2Cc1ccc(F)cc1 [IF-650] | < 5 µM |
| O=C(NCCO)[C@@]12C[C@@H]3CN(Cc4ccc(F)cc4)[C@@H]([C@@H]3CN1)[C@H]2Cc1cccc2ccccc12 [IF-620] | < 5 µM |
| CC(C)CCN1CC2CC3C=NC2(C(=O)NCc2ccc(F)cc2)C1C3CC(C)C (stereo not drawn) [IIB-104] | 5 to 10 µM |
| CC(C)CC[C@@H]1[C@H]2CN[C@@]3(C(=O)NCc4ccccc4)[C@@H](C2)CN(CCC(=O)O)[C@@H]13 [IB-694] | 10 to 30 µM |
| CC(C)CCN1CC2CC3(C(=O)NCc4ccc(Cl)cc4)N=CC2C1C3CC(C)C (stereo not drawn) [IIF-103] | 5 to 10 µM |
| O=C(NCCO)[C@]12NC[C@H]3C[C@H]1CN(CC1CCCCC1)[C@H]2[C@@H]3CCc1ccccc1 [IB-663] | < 5 µM |
| O=C(NCc1ccc(F)cc1)[C@@]12C[C@@H]3CN(Cc4ccccc4)[C@@H]([C@@H]3CN1)[C@H]2Cc1ccccc1 (relative stereo) [IF-561] | < 5 µM |
| CC(C)CC[C@@H]1[C@H]2CN[C@@]3(C(=O)NCc4ccc(F)cc4)[C@@H](C2)CN(CCO)[C@@H]13 [IB-657] | 10 to 30 µM |
| CCC1N[C@@]2(C(=O)NCc3ccccc3)C[C@@H]3CN(CC(C)C)[C@@H]([C@H]13)[C@H]2Cc1ccccc1 (relative stereo) [IF-69] | 10 to 30 µM |
| O=C(NCCc1ccccc1)[C@@]12C[C@@H]3CN(CC4CCCCC4)[C@@H]([C@@H]3CN1)[C@H]2Cc1cccc2ccccc12 [IF-718] | < 5 µM |
| CCCCCCNC(=O)[C@@]12C[C@@H]3CN(CC4CCCCC4)[C@@H]([C@@H]3CN1)[C@H]2Cc1ccc(O)cc1 (relative stereo) [IF-514] | < 5 µM |
| O=C(O)CCN1CC2CC3CNC2(C(=O)NCc2ccc(O)cc2)C1C3Cc1cccc2ccccc12 (stereo not drawn) [IB-516] | 10 to 30 µM |
| O=C(NCCO)[C@]12NC[C@H]3C[C@H]1CN(CCc1ccccc1)[C@H]2[C@@H]3Cc1ccccc1 [IB-640] | < 5 µM |
| CC(C)C[C@@H]1[C@H]2CN[C@@]3(C(=O)NC(C)C)[C@@H](C2)CN(CCCNC(=N)N)[C@@H]13 [IB-176] | 10 to 30 µM |

Same assay, conditions: read-out: IC50

| SMILES | IC50 |
| --- | --- |
| Cc1cccc(C[C@@H]2[C@@H]3[C@@H]4CN[C@@]2(C(=O)NCc2ccccc2)C[C@@H]4CN3CC(C)C)c1 (relative stereo) [IF-13] | 13.1 µM |
| CC(C)CN1C[C@H]2C[C@]3(C(=O)NCc4ccccc4)NC[C@H]2[C@H]1[C@H]3Cc1ccccc1 (relative stereo) [IF-1, (3S*,3aS*,6S*,7R*,7aS*)-N,7-dibenzyl-1-isobutyloctahydro-6H-3,6-methanopyrrolo[3,2-c]pyridine-6-carboxamide] | 12.6 µM |
| Cc1cccc(CNC(=O)[C@]23NC[C@@H]4C[C@H]2CN(CC(C)C)[C@H]3[C@@H]4Cc2ccccc2)c1 (relative stereo) [IB-15] | 15.9 µM |
| CCC1N[C@@]2(C(=O)NCc3ccccc3)C[C@@H]3CN(CC(C)C)[C@@H]([C@H]13)[C@H]2Cc1ccccc1 (relative stereo) [IF-69] | 16.5 µM |
